Results reported in PubChem BioAssay AID588437 (Southern Research Specialized Biocontainment Screening …, 2011).
Values joined by “and” are separate entries in the source; they are usually repeats but may differ in a detail not shown here. Equal values may be shown once. Records with an inconclusive call do not appear. Active and inactive are the calls of the source. The rule behind the calls is not given here.

What was measured:
[1] = test system: Mycobacterium tuberculosis H37Rv growth inhibition, no glycerol; experiment: Mycobacterium tuberculosis h37rv growth inhibition in absence of glycerol, confirmatory dose response (AID 588437); details: for IC50: measured here: IC50 growth inhibition replicates
[2] = as above; details: Mycobacterium tuberculosis H37Rv growth inhibition, no glycerol

Row | Structure (SMILES) | IC50 [1] | IC90 [1] [µM] | outcome [2]
1 | CC1CC(C)CN(C(=O)c2ccc(CNc3c(N4CCCC4)c(=O)c3=O)cc2)C1 (centres undefined) | 22.8 µM |  | 
2 | O=C(c1ccc(CNc2c(N3CCCC3)c(=O)c2=O)cc1)N1CC=C(c2ccccc2)CC1 | 12.5 µM and 8.13 µM |  | 
3 | COC(=O)CSc1ncnc2c1cnn2-c1ccc(C)cc1C | 5.41 µM | 6.65 | 
4 | O=C(C1CCC(CNc2c(N3CCCCC3)c(=O)c2=O)CC1)N1CCCCC1 (centres undefined) | 59.6 µM |  | 
5 | COc1ccc(N2CCN(C(=O)c3ccc(CNc4c(N5CCOCC5)c(=O)c4=O)cc3)CC2)cc1 | 21.7 µM and 18.5 µM |  | 
6 | CCC(C)NC(=O)CSc1nc2ccccc2c(=O)[nH]1 (centres undefined) | 2.98 µM | 4.01 | 
7 | Cc1cccc(N2CCN(C(=O)c3ccc(CNc4c(N5CCC(C)CC5)c(=O)c4=O)cc3)CC2)c1C |  |  | inactive
8 | O=C(c1ccc(CNc2c(N3CCOCC3)c(=O)c2=O)cc1)N1CC=C(c2ccccc2)CC1 | 4.83 µM | 15.4 | 
9 | CCOC(=O)CSc1ncnc2c1cnn2-c1ccccc1 | 30.2 µM | 47.7 | 
10 | CC1CCN(C(=O)c2ccc(CNc3c(N4CCCC4)c(=O)c3=O)cc2)CC1 | 20.3 µM |  | 
11 | O=C(c1ccc(CNc2c(N3CCCC3)c(=O)c2=O)cc1)N1CCc2ccccc2C1 | 13.4 µM |  | 
12 | CC1CCCN(C(=O)C2CCC(CNc3c(N4CCCCC4)c(=O)c3=O)CC2)C1 (centres undefined) | 64.3 µM |  | 
13 | CCOC(=O)CSc1ncnc2c1cnn2-c1ccc(C)cc1C | 5 µM | 7.19 | 
14 | CC(C)OC(=O)CSc1ncnc2c1cnn2-c1ccccc1 | 29.5 µM |  | 
15 | CC1CC(C)CN(C(=O)C2CCC(CNc3c(N4CCCCC4)c(=O)c3=O)CC2)C1 (centres undefined) | 26.9 µM and 35.5 µM |  | 
16 | O=C(NCCc1ccc(Cl)cc1)C1CCC(CNc2c(N3CCCCC3)c(=O)c2=O)CC1 (centres undefined) | 22.4 µM |  | 
17 | O=C(NCCc1ccc(Cl)cc1)c1ccc(CNc2c(N3CCOCC3)c(=O)c2=O)cc1 | 11 µM and 11.2 µM |  | 
18 | CC1CCCN(C(=O)c2ccc(CNc3c(N4CCCCC4)c(=O)c3=O)cc2)C1 (centres undefined) | 14.1 µM |  | 
19 | Cc1cccc(N2CCN(C(=O)c3ccc(CNc4c(N5CCC(C)CC5)c(=O)c4=O)cc3)CC2C)c1 (centres undefined) | 40.9 µM | 51.8 | 
20 | CCOc1ccc(NC(=O)c2ccc(CNc3c(N4CCCC4)c(=O)c3=O)cc2)cc1 |  |  | inactive
21 | CC(=O)c1ccc(NC(=O)c2ccc(CNc3c(N4CCOCC4)c(=O)c3=O)cc2)cc1 | > 98.8 µM |  | 
22 | CCOC(=O)N1CCC(Nc2c(Nc3cccc(CC)c3)c(=O)c2=O)CC1 | 65.1 µM | 85.3 | 
